Experimental data as given in PMC5601359 (Journal of Medicinal Chemistry, 2017).
Read-outs that look alike come from different tables or passages of the source.

Experiments:
[1] = target: T1, HIV-1 IN (Human immunodeficiency virus type 1 group M subtype B, UniProt P12497); test: in vitro IN assay, 3′-processing; assay type: biochemical
[2] = target: T1, HIV-1 IN; test: in vitro IN assay, strand transfer; assay type: biochemical
[3] = system: HIV-1 vector carrying WT IN; test: single-round HIV-1 infectivity assay, vector with WT IN; assay type: cell-based; details: EC50 of compound/EC50 of DTG
[4] = system: HIV-1 vector carrying Y143R IN mutant; test: single-round HIV-1 infectivity assay, vector with Y143R IN; assay type: cell-based; details: for FC, fold change relative to WT, Y143R: EC50 of mutant/EC50 of WT; for EC50: Human immunodeficiency virus 1, HOS, read-out: EC50 Y143R
[5] = system: HIV-1 vector carrying N155H IN mutant; test: single-round HIV-1 infectivity assay, vector with N155H IN; assay type: cell-based; details: for fold improvement relative to DTG, N155H: EC50 of compound/EC50 of DTG; for FC, fold change relative to WT, N155H: EC50 of mutant/EC50 of WT; for EC50: Human immunodeficiency virus 1, HOS, read-out: EC50 N155H
[6] = system: HIV-1 vector carrying G140S/Q148H IN mutant; test: single-round HIV-1 infectivity assay, vector with G140S/Q148H IN; assay type: cell-based; details: for FC, fold change relative to WT, G140S/Q148H: EC50 of mutant/EC50 of WT; for EC50: Human immunodeficiency virus 1, HOS, read-out: EC50 G140S/Q148H
[7] = system: HIV-1 vector carrying G118R IN mutant; test: single-round HIV-1 infectivity assay, vector with G118R IN; assay type: cell-based; details: EC50 of compound/EC50 of DTG
[8] = system: HIV-1 vector carrying T66I IN mutant; test: single-round HIV-1 infectivity assay, vector with T66I IN; assay type: cell-based; details: EC50 of compound/EC50 of DTG
[9] = system: HIV-1 vector carrying E92Q IN mutant; test: single-round HIV-1 infectivity assay, vector with E92Q IN; assay type: cell-based; details: EC50 of compound/EC50 of DTG
[10] = system: HIV-1 vector carrying R263K IN mutant; test: single-round HIV-1 infectivity assay, vector with R263K IN; assay type: cell-based; details: EC50 of compound/EC50 of DTG
[11] = system: HIV-1 vector carrying H51Y IN mutant; test: single-round HIV-1 infectivity assay, vector with H51Y IN; assay type: cell-based; details: EC50 of compound/EC50 of DTG
[12] = system: HIV-1 vector carrying H51Y/R263K IN mutant; test: single-round HIV-1 infectivity assay, vector with H51Y/R263K IN; assay type: cell-based; details: EC50 of compound/EC50 of DTG
[13] = system: HIV-1 vector carrying WT IN; details: read-out: EC50 WT; HOS cells, vector harboring WT IN; cited from earlier work
[14] = system: HIV-1 vector carrying Y143R IN mutant; details: cited from earlier work; for FC, fold change relative to WT, Y143R: EC50 of mutant/EC50 of WT; for EC50: read-out: EC50 Y143R, HOS cells, vector harboring Y143R IN
[15] = system: HIV-1 vector carrying N155H IN mutant; details: cited from earlier work; for FC, fold change relative to WT, N155H: EC50 of mutant/EC50 of WT; for EC50: read-out: EC50 N155H, HOS cells, vector harboring N155H IN
[16] = system: HIV-1 vector carrying G140S/Q148H IN mutant; details: cited from earlier work; for FC, fold change relative to WT, G140S/Q148H: EC50 of mutant/EC50 of WT; for EC50: read-out: EC50 G140S/Q148H, HOS cells, vector harboring G140S/Q148H IN
[17] = system: HIV-1 vector carrying G118R IN mutant; details: cited from earlier work; for EC50: read-out: EC50 G118R, vector harboring G118R IN
[18] = system: HIV-1 vector carrying T66I IN mutant; details: cited from earlier work; for EC50: read-out: EC50 T66I, vector harboring T66I IN
[19] = system: HIV-1 vector carrying E92Q IN mutant; details: cited from earlier work; for EC50: read-out: EC50 E92Q, vector harboring E92Q IN
[20] = system: HIV-1 vector carrying R263K IN mutant; details: cited from earlier work; for EC50: read-out: EC50 R263K, vector harboring R263K IN
[21] = system: HIV-1 vector carrying H51Y IN mutant; details: cited from earlier work; for EC50: read-out: EC50 H51Y, vector harboring H51Y IN
[22] = system: HIV-1 vector carrying H51Y/R263K IN mutant; details: cited from earlier work; for EC50: read-out: EC50 H51Y/R263K, vector harboring H51Y/R263K IN
[23] = system: human osteosarcoma (HOS) cells; details: 50% reduction in the level of ATP in HOS cells; cited from earlier work
[24] = in vitro; details: human

COC(=O)CNc1c(C(=O)NCc2ccc(F)cc2F)c(=O)n(O)c2nc(N3CCOCC3)ccc12 [5i, Methyl 2-((3-((2,4-Difluorobenzyl)carbamoyl)-1-hydroxy-7-morpholino-2-oxo-1,2-dihydro-1,8-naphthyridin-4-yl)amino)acetate]
IC50 [1]: > 333000 nM

Nc1c(C(=O)NCc2ccc(F)cc2F)c(=O)n(O)c2ncc(/C=C/C(=O)NCCO)cc12 [6o, (E)-4-Amino-N-(2,4-difluorobenzyl)-1-hydroxy-6-(3-((2-hydroxyethyl)amino)-3-oxoprop-1-en-1-yl)-2-oxo-1,2-dihydro-1,8-naphthyridine-3-carboxamide]
IC50 ([2]; ST IC50, as stated in text): < 10 nM

COC(=O)CCc1cnc2c(c1)c(N)c(C(=O)NCc1ccc(F)cc1F)c(=O)n2O [6p, Methyl 3-(5-Amino-6-((2,4-difluorobenzyl)carbamoyl)-8-hydroxy-7-oxo-7,8-dihydro-1,8-naphthyridin-3-yl)propanoate]
IC50 ([2]; ST IC50, as stated in text): ≤ 10 nM | fold improvement relative to DTG, WT [3]: 0.67 ± 0.15 (0.42×) | fold improvement relative to DTG, Y143R ([4]; EC50 of compound/EC50 of DTG): 0.67 ± 0.23 (0.16×) | fold improvement relative to DTG, N155H [5]: 2.3 ± 0.2 (0.64×) | fold improvement relative to DTG, G140S/Q148H ([6]; EC50 of compound/EC50 of DTG): 5.3 ± 1.8 (0.91×) | fold improvement relative to DTG, G118R [7]: 4.8 ± 1.5 (0.37×) | fold improvement relative to DTG, T66I [8]: 0.53 ± 0.06 (0.59×) | fold improvement relative to DTG, E92Q [9]: 2.0 ± 1.1 (0.87×) | fold improvement relative to DTG, R263K [10]: 0.5 ± 0.0 (0.05×) | fold improvement relative to DTG, H51Y [11]: 0.63 ± 0.30 (0.20×) | fold improvement relative to DTG, H51Y/R263K [12]: 2.4 ± 0.8 (0.15×)

COC(=O)CNc1c(C(=O)NCc2ccc(F)cc2F)c(=O)n(O)c2ncccc12 [5′g]
FC, fold change relative to WT, Y143R [4]: 1 × | EC50 [4]: 4.6 ± 2.2 nM | FC, fold change relative to WT, N155H [5]: 5 × | EC50 [5]: 19 ± 7 nM | FC, fold change relative to WT, G140S/Q148H [6]: 9 × | EC50 [6]: 36 ± 16 nM

COc1cc2c(cc1Cc1cccc(Cl)c1F)c(=O)c(C(=O)O)cn2[C@H](CO)C(C)C [EVG (2), elvitegravir]
EC50 [13]: 6.4 ± 0.8 nM | FC, fold change relative to WT, Y143R [14]: 1 × | EC50 [14]: 7.9 ± 2.3 nM | FC, fold change relative to WT, N155H [15]: 14 × | EC50 [15]: 90 ± 18 nM | FC, fold change relative to WT, G140S/Q148H [16]: 891 × | EC50 [16]: 5700 ± 1100 nM | FC, fold change relative to WT, G118R ([17]; EC50 of mutant/EC50 of WT): 3 × | EC50 [17]: 21 ± 10 nM | FC, fold change relative to WT, T66I ([18]; EC50 of mutant/EC50 of WT): 10 × | EC50 [18]: 66 ± 1 nM | FC, fold change relative to WT, E92Q ([19]; EC50 of mutant/EC50 of WT): 24 × | EC50 [19]: 154 ± 34 nM | FC, fold change relative to WT, R263K ([20]; EC50 of mutant/EC50 of WT): 2 × | EC50 [20]: 10 ± 6 nM | FC, fold change relative to WT, H51Y ([21]; EC50 of mutant/EC50 of WT): 0.7 × | EC50 [21]: 4.5 ± 2.1 nM | FC, fold change relative to WT, H51Y/R263K ([22]; EC50 of mutant/EC50 of WT): 8 × | EC50 [22]: 53 ± 18 nM | CC50 [23]: > 250000 nM

Nc1c(C(=O)NCc2ccc(F)cc2F)c(=O)n(O)c2ncc(CCCCCCOC(=O)c3ccccc3)cc12 [6c, 6-(5-Amino-6-((2,4-difluorobenzyl)carbamoyl)-8-hydroxy-7-oxo-7,8-dihydro-1,8-naphthyridin-3-yl)hexyl Benzoate]
IC50 ([2]; in vitro IC50 ST, gel-based protocol, Mg2+ cofactor): 3300 ± 600 nM | FC, fold change relative to WT, Y143R [4]: 0.7 × | EC50 [4]: 3.5 ± 1.2 nM | FC, fold change relative to WT, N155H [5]: 1 × | EC50 [5]: 5.4 ± 1.9 nM | FC, fold change relative to WT, G140S/Q148H [6]: 4 × | EC50 [6]: 21 ± 7.8 nM | CC50 [24]: 14400 ± 4800 nM

C[C@@H]1CCO[C@H]2Cn3cc(C(=O)NCc4ccc(F)cc4F)c(=O)c(O)c3C(=O)N12 [DTG (3), dolutegravir]
EC50 [13]: 1.6 ± 0.9 nM | EC50 [15]: 3.6 ± 1.3 nM | EC50 [17]: 13 ± 5 nM | EC50 [18]: 0.9 ± 0.8 nM | EC50 [19]: 2.3 ± 0.4 nM | EC50 [20]: 11 ± 3 nM | EC50 [22]: 16 ± 2 nM | CC50 [23]: > 250000 nM

Nc1c(C(=O)NCc2ccc(F)cc2F)c(=O)n(O)c2ncc(CCC(=O)O)cc12 [6i, 3-(5-Amino-6-((2,4-difluorobenzyl)carbamoyl)-8-hydroxy-7-oxo-7,8-dihydro-1,8-naphthyridin-3-yl)propanoic Acid]
IC50 ([2]; ST IC50, as stated in text): ≤ 10 nM

Nc1c(C(=O)NCc2ccc(F)cc2F)c(=O)n(O)c2ncccc12 [5′d]
EC50 [13]: 1.1 ± 0.7 nM | CC50 [23]: > 250000 nM

COC(=O)CNc1c(C(=O)NCc2ccc(F)cc2F)c(=O)n(O)c2nc(N3CCCCC3)ccc12 [5h, Methyl 2-((3-((2,4-Difluorobenzyl)carbamoyl)-1-hydroxy-2-oxo-7-(piperidin-1-yl)-1,2-dihydro-1,8-naphthyridin-4-yl)amino)acetate]
IC50 [1]: > 333000 nM

Nc1c(C(=O)NCc2ccc(F)cc2F)c(=O)n(O)c2ncc(CCC(=O)NCCO)cc12 [6n, 4-Amino-N-(2,4-difluorobenzyl)-1-hydroxy-6-(3-((2-hydroxyethyl)amino)-3-oxopropyl)-2-oxo-1,2-dihydro-1,8-naphthyridine-3-carboxamide]
IC50 ([2]; ST IC50, as stated in text): < 10 nM

CC(=O)OCCCc1cnc2c(c1)c(N)c(C(=O)NCc1ccc(F)cc1F)c(=O)n2O [6b, 3-(5-Amino-6-((2,4-difluorobenzyl)carbamoyl)-8-hydroxy-7-oxo-7,8-dihydro-1,8-naphthyridin-3-yl)propyl Acetate]
IC50 ([2]; ST IC50, as stated in text): ≤ 10 nM

Cc1nnc(C(=O)NC(C)(C)c2nc(C(=O)NCc3ccc(F)cc3)c(O)c(=O)n2C)o1 [RAL (1), raltegravir]
EC50 [13]: 4 ± 2 nM | EC50 [17]: 36 ± 5 nM | EC50 [18]: 2.8 ± 0.4 nM | EC50 [19]: 30 ± 10 nM | EC50 [20]: 5.7 ± 2.3 nM | EC50 [21]: 3.4 ± 0.2 nM | EC50 [22]: 6 ± 2.3 nM | CC50 [23]: > 250000 nM

Nc1c(C(=O)NCc2ccc(F)cc2F)c(=O)n(O)c2ncc(CCCCCO)cc12 [6′b]
fold improvement relative to DTG, WT [3]: 1.3 ± 0.2 (0.81×) | fold improvement relative to DTG, N155H [5]: 2.4 ± 0.8 (0.67×) | fold improvement relative to DTG, G118R [7]: 5.3 ± 1.6 (0.41×) | fold improvement relative to DTG, R263K [10]: 2.6 ± 0.1 (0.24×) | fold improvement relative to DTG, H51Y/R263K [12]: 2.6 ± 1.4 (0.16×) | CC50 [23]: > 250000 nM

O=C(NCc1ccc(F)cc1F)c1c(O)c2cccnc2n(O)c1=O [5′a]
EC50 [13]: 6.2 ± 2.9 nM | FC, fold change relative to WT, Y143R [14]: 2 × | EC50 [14]: 11 ± 2 nM | FC, fold change relative to WT, N155H [15]: 5 × | EC50 [15]: 31 ± 8 nM | FC, fold change relative to WT, G140S/Q148H [16]: 50 × | EC50 [16]: 308 ± 125 nM | CC50 [23]: 137000 ± 20000 nM
